Test results as given in US7091238B1, “Thienylhydrazon with digitalis-like properties (positive inotropic effects)” (University of Maryland, priority 1999, dated 2006).
Entries after “also recorded” stand apart in the source; their conditions may differ.

What was measured:
rat cardiac muscle = assay: Isometric tension of papillary, atrial and ventricular bundles of cardiac muscle
Protocol: FIG. 2. The papillary muscle, and bundles of atrial and ventricular cells obtained from rat hearts were dissected and set in an aerated chamber to enable recording of isometric tension. LASSBio-294 was added to the chamber in a cumulative manner, first 10 μM and increasing to 50 μM and recordings made after allowing 5 min. for equilibration.
FIG. 3. LASSBio-294 was added to the physiologic solution at increasing concentrations. The isometric tension was expressed as a percent of control, as measured prior to addition of test solution. N=9 for each concentration.
a. The test shown in FIG. 2 measured the effect of LASSBio-294 on the isometric tension of papillary, atrial, and ventricular bundles of rat cardiac muscle. Chart traces are of muscle tension for each muscle group. […] FIG. 3 contains a graphic representation of the effect of LASSBio-294 on isometric tension of papillary, atrial, and ventricular bundles of rat cardiac muscle. LASSBio-294 at concentrations of 0 μM, 25 μM, 50 μM, 100 μM, 200 μM, and 500 μM was used. Isometric tension is expressed as a percent of control that was measured prior to addition of the test solution. […] General Method
The papillary muscle, and bundles of atrial and ventricular cells obtained from rat hearts were dissected and set in an aerated verticle chamber to enable recording of isometric tension. LASSBio-294 was added to the chamber in a cumulative manner. Recordings made after allowing 5 min. for equilibration.

[1] = test system: sarcoplasmic reticulum of human skeletal muscle fibers (vastus lateralis); assay: Induced tension in isolated human skeletal muscle fiber (sarcolemma removed); format: cell-based; conditions: 25, 50, 100 μM, SR loaded at pCa 7.0 for 3 min
Protocol: FIG. 14. Isolated human skeletal muscle fiber from the vastus lateralis (sarcolemmal membrane-free) was exposed to 0.5 mM of CaCl2 to enable maximal muscle tension (Po). The histogram show the effect of LASSBio-294 at concentrations of 25, 50 and 100 μM on induced tension in human fibers. N=6 Calibration: Vertical; 10 mm=20 mg; Horizontal, 10 mm=40 s.
Isolated muscle fiber from the vastus lateralis was exposed to 0.5 mM of CaCl2 to enable maximal muscle tension.

rat thoracic aorta = assay: Relaxation of noradrenaline-precontracted thoracic aortic rings
Description: Aortic rings: Male wistar rats (300–350 g) were anaesthetized with ether and killed by cervical dislocation. The thoracic aorta was quickly removed, placed in physiological solution, cleaned of fat and connective tissue, and cut into 3-mm rings. In some experiments endothelium was mechanically removed by gently rubbing inverted rings on a cotton surface moistened with physiological solution. The rings were fixed in an organ bath chamber filled with physiological solution (composition (mM): NaCl 122, KCl 5, NaHCO3 15, glucose 11.5, MgCl2 1.25, CaCl2 1.25 and KH2PO4 1.25) aerated with O2/CO2, maintained at 37° C., and left to equilibrate for 60 min during which the physiological solution was changed twice. All experiments were carried out under an initial tension of 20 mN, and the developed active tension was measured isometrically using a Grass Transducer (FT03). Data were acquired and analyzed by Chart 3.4/s software (MacLab, USA). The contraction was induced by 1 μM Noradrenaline (NOR) and when it reached a plateau the relaxant drugs (or solvent—time-matched control) were added. The rings contracted with 1 μM NOR that relaxed 40–50% in response to 1 μM acetylcholine were considered with intact endothelium. Drugs: LASSBio-294 and ODQ were dissolved in 100% dimethyl sulphoxide (DMSO). Noradrenalin, 1-NAME, IBMX, methylene blue, acetylcholine and indomethacin were purchased from SIGMA (USA). All drugs but indomethacin were dissolved in water in the day of the experiment. Indomethacin was dissolved in 5% sodium carbonate. Statistics: Data are presented as mean ±sem. Statistical analysis was performed using the Primer software. Vasodilator responses are expressed in percentage of the maximal contraction induced by 1 μM NOR. Differences were considered significant at p<0.05 (Student's t test).

[2] = Blood biochemistry analysis in treated mice; format: in vivo
Protocol: b. Rats were weighed before and after treatment with LASSBio 204. […] Six rats were examined in each group, measurements were made after 1–15 days of treatment. […] Mice were injected with LASSBio-294 and their blood examined for cell changes. Experimental groups received 2 or 10 mg/kg of drug. […] Table 4 lists blood chemistry analysis of mice treated with LASSBio-294. Experimental groups received 2 or 10 mg/kg of drug. Controls were saline and solvent. […] The low values of glucose found could be due to an artifact of the technique, glucose being a byproduct of hemolysis. […] General Method

In the case of `O=C(NN=Cc1cccs1)c1ccc2c(c1)OCO2` [LASSBio-294, 3,4-methylenedioxybenzoyl-2-thienylhydrazone], the “isometric tension as percent of control vs concentration” value (rat cardiac muscle; 0, 25, 50, 100, 200, 500 μM, nine tests per concentration) is reported as “increased for each concentration up to 200 μM”, the isometric tension (rat cardiac muscle; papillary, atrial, ventricular bundles, 10 μM and 50 μM cumulative) is reported as “increase in tension” and the “increased tension over control” value (rat cardiac muscle; ventricular, papillary and atrial bundles, concentrations of up to 200 uM) is reported as no more than 2 fold. The “release of Ca^2+ from the sarcoplasmic reticulum / induced tension” value [1] was “induces the release of Ca^2+; also recorded: evoked a contraction”, the “vasodilator activity (conclusion)” value (rat thoracic aorta) was “has vasodilator activity” and the “relaxation of aortic rings with intact endothelium” value (rat thoracic aorta; 1 μM noradrenaline precontraction, 100 μM) was “relaxed noradrenaline-precontracted aortic rings; also recorded: relaxed intact aortic rings in a concentration-dependent manner”. For the same compound, the “relaxation after addition of methylene blue” value (rat thoracic aorta; 30 μM methylene blue added after compound 100 μM) was “fully reversed”, the “relaxation after pre-treatment with methylene blue” value (rat thoracic aorta; 30 μM methylene blue added before compound) was “not able to induce relaxation; also recorded: prevented; also recorded: abolishes” and the “relaxation after 1-NAME treatment” value (rat thoracic aorta; 1-NAME 100 μM during 30 min) was “no difference in the relaxation”. The “vasorelaxation in presence of ODQ” value (rat thoracic aorta; ODQ 10 μM, compound 100 μM, preliminary assays) was “prevented”, the “relaxation in endothelium-denuded aorta” value (rat thoracic aorta; endothelium removed) was “abolished” and the “relaxation after 1-NAME plus indomethacin” value (rat thoracic aorta; inhibition of both NOS and cycloxigenase pathways) was “same level of relaxation observed in the presence of only 1-NAME; also recorded: the same as observed in the presence of 1-NAME alone”. For the same compound, the “relaxation compared with acetylcholine and IBMX” value (rat thoracic aorta; intact rings, 1 μM noradrenaline) was “more slowly; also recorded: less pronounced”, the “hemoglobin, erythrocytes and blood biochemistry” value ([2]; male and female mice, long-term treatment) was “values similar to control” and the blood chemistry values ([2]; mice, 2 or 10 mg/kg, controls saline and solvent) was “no significant change in blood chemistry values”.
